In this test the target is human IDO1 (Homo sapiens, UniProt P14902). Briefly: Assessment of human IDO-1 inhibitory activity in Hela cells (Interferon-gamma activated, Ehrlich reagent, absorbance at 490 nm). It counts as cell-based. The arrangement: endogenous in cells; host or cells: HeLa cells stimulated with interferon-gamma. Conditions: 18 hours. The method in brief: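 HeLa cells were preincubated with compound for 1 h at 37 °C, then stimulated with human IFN-γ (10 ng/ml final) or murine IFN-γ (5 ng/ml final) for 18 h. Kynurenine was read after TCA (3% final, 50 °C for 30 min) and Ehrlich reagent at A490. For IC50, unstimulated wells were set as 100% inhibition and IFN-γ alone as 0%.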
Sequence of human IDO1 (P14902 whole entry): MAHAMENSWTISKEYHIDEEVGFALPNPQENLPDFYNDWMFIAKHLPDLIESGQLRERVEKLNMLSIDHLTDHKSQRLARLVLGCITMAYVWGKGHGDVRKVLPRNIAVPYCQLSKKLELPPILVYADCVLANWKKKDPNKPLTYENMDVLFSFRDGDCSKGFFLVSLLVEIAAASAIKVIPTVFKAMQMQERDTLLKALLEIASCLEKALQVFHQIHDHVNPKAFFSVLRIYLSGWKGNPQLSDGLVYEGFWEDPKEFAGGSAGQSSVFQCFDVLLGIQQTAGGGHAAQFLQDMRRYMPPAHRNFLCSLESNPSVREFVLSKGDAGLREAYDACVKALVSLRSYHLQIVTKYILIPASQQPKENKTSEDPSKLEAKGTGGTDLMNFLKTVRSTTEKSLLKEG
A word on the IC50: it is the concentration needed to halve the response being measured. Regarding `CCC(CC(=O)O)c1cc(F)c(N(CC)C2CCOCC2)c(Nc2ccc(C#N)cn2)c1` (single isomer, unassigned) [Example 143, 3-(3-((5-cyanopyridin-2-yl)amino)-4-(ethyl (tetrahydro-2H-pyran-4-yl)amino)-5-fluorophenyl)pentanoic acid], the IC50 is less than 5 nM. The result for “(R)-3-(4-((1,1-dioxidotetrahydro-2H-thiopyran-4-yl)(ethyl)amino)-3-((2-ethoxypyrimidin-5-yl)amino)phenyl)-4-isopropoxybutanoic acid [Example 333]” reads more than 50 nM. In the case of “(R)-3-(3-((4-cyano-3-methylphenyl)amino)-4-(ethyl(tetrahydro-2H-pyran-4-yl)amino)phenyl)-4-methoxybutanoic acid [Example 391]”, the IC50 was less than 50 nM. `COCCN(c1ccc(C(COC)CC(=O)O)cc1NC(=O)Nc1ccc(C)cc1)C1CCOCC1` (single isomer, unassigned) [Example 261 Enantiomer 2, 4-Methoxy-3-(4-((2-methoxyethyl)(tetrahydro-2H-pyran-4-yl)amino)-3-(3-(p-tolyl)ureido)phenyl)butanoic acid] yielded an IC50 of more than 50 nM.

On to `CCC(CC(=O)O)c1ccc(N(CCOC)C2CCOCC2)c(Nc2ccc(C#N)cc2)c1` (single isomer, unassigned) [Example 1261, 3-(3-((4-cyanophenyl)amino)-4-((2-methoxyethyl)(tetrahydro-2H-pyran-4-yl)amino)phenyl)pentanoic acid], for which the IC50 was less than 5 nM. `CCC(CC(=O)O)c1ccc(N2CCC(C)CC2)c(NC(=O)Nc2ccc(C)cc2)c1` (single isomer, unassigned) [Example 46 Enantiomer 2, 3-(4-(4-Methylpiperidin-1-yl)-3-(3-(p-tolyl)ureido)phenyl) pentanoic acid] had a half-maximal inhibitory concentration (IC50) of more than 50 nM. For `COCC(CC(=O)OC)c1ccc(N(CC(F)F)C2CCOCC2)c(Nc2ccc(Cl)cc2)c1` (centres unmarked) [Example 320, methyl 3-(3-((4-chloro-phenyl)amino)-4-((2,2-difluoroethyl) (tetrahydro-2H-pyran-4-yl)amino)phenyl)-4-methoxy-butanoate] the value was more than 50 nM. The result for `CCC(CC(=O)O)c1ccc(N(CC)C2CCS(=O)(=O)CC2)c(Nc2ccc(Cl)cc2)c1` (single isomer, unassigned) [Example 334 Enantiomer 2, 3-(3-((4-Chlorophenyl)amino)-4-((1,1-dioxidotetrahydro-2H-thiopyran-4-yl)(ethyl)amino)phenyl)pentanoic acid] reads less than 5 nM; that for `CCOc1ncc(Nc2cc(C(COC)CC(=O)O)ccc2N2CCOC[C@H]2C(C)C)cn1` (single isomer, unassigned) [Example 938], more than 50 nM. The molecule `CCN(c1ccc(C(CC(=O)O)C2CC2)cc1Nc1ccc(Cl)cc1)C1CCOCC1` (single isomer, unassigned) [Example 33 Enantiomer 2, 3-(3-((4-Chlorophenyl)amino)-4-(ethyl(tetrahydro-2H-pyran-4-yl)amino)phenyl)-3-cyclopropylpropanoic acid] gave an IC50 of less than 5 nM.

As for `CCN(c1ccc(C(C)CC(=O)O)cc1Nc1cnc(OC(C)C)nc1)C1CCOCC1` (single isomer, unassigned) [Example 635, 3-(4-(ethyl(tetrahydro-2H-pyran-4-yl)amino)-3-((2-isopropoxypyrimidin-5-yl)amino)phenyl)butanoic acid], the IC50 was more than 50 nM. The molecule `CCOc1ncc(Nc2cc([C@H](COC)CC(=O)O)ccc2N2CCOCC2CC)cn1` (single isomer, unassigned) [Example 1307] registered a concentration for half-maximal inhibition (IC50) of more than 50 nM.

In turn, `CCN(c1ccc(C(COC)CC(=O)O)cc1Nc1ccc(C#N)cc1)C1CCS(=O)(=O)CC1` (single isomer, unassigned) [Example 169, 3-(3-((4-cyanophenyl)amino)-4-((1,1-dioxidotetrahydro-2H-thiopyran-4-yl)(ethyl)amino)phenyl)-4-methoxybutanoic acid] showed an IC50 of more than 50 nM.

In turn, `CCC(CC(=O)O)c1ccc(N(CC)C2CCOC2)c(NC(=O)Nc2ccc(Cl)cc2F)c1` (single isomer, unassigned) [948 D2] gave an IC50 of less than 50 nM. Molecule “(S)-3-(4-((1,1-dioxidotetrahydro-2H-thiopyran-4-yl)(ethyl)amino)-3-((2-methoxypyrimidin-5-yl)amino)phenyl)-4-isopropoxybutanoic acid [Example 327]” showed an IC50 of more than 50 nM.

As for `CC(CC(=O)O)c1ccc(N2C[C@@H](C)O[C@@H](C)C2)c(NC(=O)Nc2ccc(C#N)cc2)c1` (single isomer, unassigned) [Example 752], the IC50 was more than 50 nM.

`CCCN(c1ccc(C(COC)CC(=O)O)cc1Nc1ccc(F)cc1)C1CCS(=O)(=O)CC1` (single isomer, unassigned) [Example 186, 3-(4-((1,1-dioxidotetrahydro-2H-thiopyran-4-yl)(propyl)amino)-3-((4-fluorophenyl)amino)phenyl)-4-methoxybutanoic acid]: the IC50 was less than 5 nM.

In the case of `CCC(CC(=O)O)c1ccc(N(CCOC)C2CCOCC2)c(NC(=O)Nc2ccc(Cl)cc2F)c1` (single isomer, unassigned) [Example 1266, 3-(3-(3-(4-chloro-2-fluorophenyl)ureido)-4-((2-methoxyethyl) (tetrahydro-2H-pyran-4-yl)amino)phenyl)pentanoic acid], the IC50 was less than 50 nM. The molecule `CCOc1ncc(Nc2cc(C(CC(=O)O)C3CC3)ccc2N(CC)C2CCOCC2)cn1` (single isomer, unassigned) [Example 39, 3-cyclopropyl-3-(3-((2-ethoxypyrimidin-5-yl)amino)-4-(ethyl(tetrahydro-2H-pyran-4-yl)amino)phenyl)propanoic acid] yielded an IC50 of less than 50 nM. For `CCN(c1ccc([C@H](COC)CC(=O)O)cc1Nc1ncc(F)cc1F)C1CCOCC1` (single isomer, unassigned) [Example 395] the value was more than 50 nM; for `CCOc1ncc(Nc2cc(C(CC)CC(=O)O)ccc2N2CCOCC2)cn1` (single isomer, unassigned) [Example 7 Enantiomer 1, 3-(3-((2-Ethoxypyrimidin-5-yl)amino)-4-morpholinophenyl)pentanoic acid], more than 50 nM; for `COCC(CC(=O)O)c1ccc(N2CCOC[C@@H]2C(C)C)c(NC(=O)Nc2ccc(C#N)cc2)c1` (single isomer, unassigned) [Example 936], more than 50 nM. For `CCC(CC(=O)O)c1ccc(N(CC)C2CCOC2)c(NC(=O)Nc2ccc(Cl)cc2F)c1` (single isomer, unassigned) [948 D1], the IC50 is less than 50 nM. The molecule `COCCN(c1ccc(C(COC)CC(=O)O)cc1Nc1ccc(F)cc1)C1CCOCC1` (single isomer, unassigned) [Example 260, 3-(3-((4-fluorophenyl)amino)-4-((2-methoxyethyl)(tetrahydro-2H-pyran-4-yl)amino)phenyl)-4-methoxybutanoic acid] gave an IC50 of less than 50 nM. On to `CCOc1ncc(Nc2cc(C(CC)CC(=O)O)ccc2N2CCNCC2)cn1` (single isomer, unassigned) [Example 673], for which the IC50 is more than 50 nM. Regarding `Cc1ccc(NC(=O)Nc2cc(C(CC(=O)O)C3CC3)ccc2N2C[C@@H](C)O[C@@H](C)C2)cc1` (single isomer, unassigned) [Example 251 Enantiomer 2], the IC50 was more than 50 nM.

Values taken from patent publication US10399932B2, “Inhibitors of indoleamine-2,3-dioxygenase for the treatment of cancer” (BRISTOL-MYERS SQUIBB COMPANY, priority 2015, dated 2019).
